Like-named read-outs stand apart in the source and are kept apart here.
How the values were obtained:
NCI-60 cancer cell lines = assay: NCI-60 cancer cell line drug screen (GI50, MGM); type: cell-based, human; settings: Homo sapiens; for GI50: read-out: Antiproliferative Activities [GI50 (μM)]
Protocol: Cancer cells were incubated with the test compounds at five concentrations ranging from 100 μM to 10 nM for 48 h. […] The approximate average of GI50 values across the entire panel of NCI-60 cancer cell lines for each compound was recorded as the MGM value.

human topoisomerase I = target: T1, human topoisomerase I (Homo sapiens, UniProt P11387); settings: relative topoisomerase I inhibition levels, previously determined, six levels (0 - 5, +++++ = 5); cited from earlier work
T1 sequence (P11387 1-765): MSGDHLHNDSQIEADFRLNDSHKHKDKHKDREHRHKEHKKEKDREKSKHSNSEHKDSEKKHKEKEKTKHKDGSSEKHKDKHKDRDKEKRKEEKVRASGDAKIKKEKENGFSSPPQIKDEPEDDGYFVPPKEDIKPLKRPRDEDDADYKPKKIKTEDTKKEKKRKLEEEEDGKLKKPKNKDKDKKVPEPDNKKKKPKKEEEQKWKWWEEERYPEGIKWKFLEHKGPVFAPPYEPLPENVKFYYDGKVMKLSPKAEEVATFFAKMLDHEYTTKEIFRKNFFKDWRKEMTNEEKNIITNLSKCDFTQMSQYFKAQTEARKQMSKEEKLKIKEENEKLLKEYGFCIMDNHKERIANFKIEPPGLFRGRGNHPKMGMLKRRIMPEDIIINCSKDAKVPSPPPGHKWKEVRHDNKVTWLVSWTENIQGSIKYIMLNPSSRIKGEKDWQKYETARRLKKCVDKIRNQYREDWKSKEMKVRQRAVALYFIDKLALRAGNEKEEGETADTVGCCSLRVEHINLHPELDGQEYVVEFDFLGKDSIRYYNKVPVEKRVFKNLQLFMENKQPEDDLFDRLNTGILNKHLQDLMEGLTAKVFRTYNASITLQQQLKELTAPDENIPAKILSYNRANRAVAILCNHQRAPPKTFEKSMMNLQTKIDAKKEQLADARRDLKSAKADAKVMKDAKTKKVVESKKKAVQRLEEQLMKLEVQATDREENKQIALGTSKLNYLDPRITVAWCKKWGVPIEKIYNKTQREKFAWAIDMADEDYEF

Question: With `COc1cnc2c(c1)C(=O)c1c-2n(CCCNCCN2CCOCC2)c(=O)c2cc([N+](=O)[O-])ccc12` [Compound 11] as the compound, how does the GI50 (NCI-60 cancer cell lines; 786-0, Renal Cancer, 786-0) read?
Answer: The GI50 was 0.22 µM.

Question: And the GI50 (NCI-60 cancer cell lines; A549, Non-Small Cell Lung Cancer, A549/ATCC)?
Answer: Its GI50 is 0.12 µM.

Question: And the GI50 (NCI-60 cancer cell lines; ACHN, Renal Cancer, ACHN)?
Answer: Its GI50 is 0.04 µM.

Question: What about the GI50 (NCI-60 cancer cell lines; BT-549, Breast Cancer, BT-549) of the same compound?
Answer: Its GI50 is 0.29 µM.

Question: And the GI50 (NCI-60 cancer cell lines; CAKI-1, Renal Cancer, CAKI-1)?
Answer: Its GI50 is 0.04 µM.

Question: What about the GI50 (NCI-60 cancer cell lines; CCRF-CEM, Leukemia, CCRF-CEM) of the same compound?
Answer: The GI50 was 0.05 µM.

Question: And the GI50 (NCI-60 cancer cell lines; COLO 205, Colon Cancer, COLO 205)?
Answer: The GI50 was 0.3 µM.

Question: What about the GI50 (NCI-60 cancer cell lines; DU-145, Prostate Cancer, DU-145) of the same compound?
Answer: Its GI50 is 0.06 µM.

Question: What about the GI50 (NCI-60 cancer cell lines; EKVX, Non-Small Cell Lung Cancer, EKVX) of the same compound?
Answer: The GI50 was 0.45 µM.

Question: What about the GI50 (NCI-60 cancer cell lines; HCC 2998, Colon Cancer, HCC-2998) of the same compound?
Answer: The GI50 was 0.3 µM.

Question: What about the GI50 (NCI-60 cancer cell lines; HCT-15, Colon Cancer, HCT-15) of the same compound?
Answer: Its GI50 is 0.3 µM.

Question: What about the GI50 (NCI-60 cancer cell lines; HL-60, Leukemia, HL-60(TB)) of the same compound?
Answer: Its GI50 is 0.1 µM.

Question: What about the GI50 (NCI-60 cancer cell lines; HOP-92, Non-Small Cell Lung Cancer, HOP-92) of the same compound?
Answer: The GI50 was 0.87 µM.

Question: What about the GI50 (NCI-60 cancer cell lines; HT-29, Colon Cancer, HT29) of the same compound?
Answer: The GI50 was 0.15 µM.

Question: What about the GI50 (NCI-60 cancer cell lines; Hs-578T, Breast Cancer, HS 578T) of the same compound?
Answer: The GI50 was 3.85 µM.

Question: And the GI50 (NCI-60 cancer cell lines; IGROV-1, Ovarian Cancer, IGROV1)?
Answer: The GI50 was 0.42 µM.

Question: And the GI50 (NCI-60 cancer cell lines; K562, Leukemia, K-562)?
Answer: The GI50 was 0.23 µM.

Question: What about the GI50 (NCI-60 cancer cell lines; KM12, Colon Cancer, KM12) of the same compound?
Answer: The GI50 was 0.4 µM.

Question: And the GI50 (NCI-60 cancer cell lines; LOX IMVI, Melanoma, LOX IMVI)?
Answer: The GI50 was 0.04 µM.

Question: What about the GI50 (NCI-60 cancer cell lines; Leukemia, SR) of the same compound?
Answer: The GI50 was 0.02 µM.

Question: What about the GI50 (NCI-60 cancer cell lines; MCF7, Breast Cancer, MCF7) of the same compound?
Answer: Its GI50 is 0.03 µM.

Question: And the GI50 (NCI-60 cancer cell lines; MDA-MB-231, Breast Cancer, MDA-MB-231/ATCC)?
Answer: Its GI50 is 0.63 µM.

Question: What about the GI50 (NCI-60 cancer cell lines; MDA-MB-435, Melanoma, MDA-MB-435) of the same compound?
Answer: The GI50 was 0.42 µM.

Question: And the GI50 (NCI-60 cancer cell lines; MDA-MB-468, Breast Cancer, MDA-MB-468)?
Answer: Its GI50 is 0.12 µM.

Question: What about the GI50 (NCI-60 cancer cell lines; MOLT-4, Leukemia, MOLT-4) of the same compound?
Answer: The GI50 was 0.03 µM.

Question: And the GI50 (NCI-60 cancer cell lines; Malme-3M, Melanoma, MALME-3M)?
Answer: Its GI50 is 0.34 µM.

Question: What about the GI50 (NCI-60 cancer cell lines; Melanoma, M14) of the same compound?
Answer: The GI50 was 0.07 µM.

Question: And the GI50 (NCI-60 cancer cell lines; NCI-H23, Non-Small Cell Lung Cancer, NCI-H23)?
Answer: The GI50 was 0.15 µM.

Question: What about the GI50 (NCI-60 cancer cell lines; NCI-H226, Non-Small Cell Lung Cancer, NCI-H226) of the same compound?
Answer: Its GI50 is 0.17 µM.

Question: What about the GI50 (NCI-60 cancer cell lines; NCI-H322M, Non-Small Cell Lung Cancer, NCI-H322M) of the same compound?
Answer: The GI50 was 0.28 µM.

Question: What about the GI50 (NCI-60 cancer cell lines; NCI-H460, Non-Small Cell Lung Cancer, NCI-H460) of the same compound?
Answer: The GI50 was 0.04 µM.

Question: What about the GI50 (NCI-60 cancer cell lines; NCI-H522, Non-Small Cell Lung Cancer, NCI-H522) of the same compound?
Answer: Its GI50 is 0.08 µM.

Question: And the GI50 (NCI-60 cancer cell lines; OVCAR-3, Ovarian Cancer, OVCAR-3)?
Answer: Its GI50 is 0.32 µM.

Question: And the GI50 (NCI-60 cancer cell lines; OVCAR-4, Ovarian Cancer, OVCAR-4)?
Answer: The GI50 was 0.33 µM.

Question: And the GI50 (NCI-60 cancer cell lines; OVCAR-5, Ovarian Cancer, OVCAR-5)?
Answer: Its GI50 is 0.45 µM.

Question: And the GI50 (NCI-60 cancer cell lines; OVCAR-8, Ovarian Cancer, OVCAR-8)?
Answer: Its GI50 is 0.17 µM.

Question: What about the GI50 (NCI-60 cancer cell lines; Ovarian Cancer, NCl/ADR-RES) of the same compound?
Answer: Its GI50 is 0.13 µM.

Question: What about the GI50 (NCI-60 cancer cell lines; Prostate Cancer, PC-3) of the same compound?
Answer: Its GI50 is 0.57 µM.

Question: And the GI50 (NCI-60 cancer cell lines; RPMI-8226, Leukemia, RPMI-8226)?
Answer: The GI50 was 0.17 µM.

Question: What about the GI50 (NCI-60 cancer cell lines; RXF 393, Renal Cancer, RXF 393) of the same compound?
Answer: The GI50 was 0.39 µM.

Question: What about the GI50 (NCI-60 cancer cell lines; Renal Cancer, U0-31) of the same compound?
Answer: Its GI50 is 0.05 µM.

Question: And the GI50 (NCI-60 cancer cell lines; SF-268, CNS Cancer, SF-268)?
Answer: Its GI50 is 0.08 µM.

Question: And the GI50 (NCI-60 cancer cell lines; SF-295, CNS Cancer, SF-295)?
Answer: Its GI50 is 0.07 µM.

Question: What about the GI50 (NCI-60 cancer cell lines; SF-539, CNS Cancer, SF-539) of the same compound?
Answer: Its GI50 is 0.31 µM.

Question: What about the GI50 (NCI-60 cancer cell lines; SK-MEL-2, Melanoma, SK-MEL-2) of the same compound?
Answer: The GI50 was 1.59 µM.

Question: And the GI50 (NCI-60 cancer cell lines; SK-MEL-5, Melanoma, SK-MEL-5)?
Answer: The GI50 was 0.26 µM.

Question: What about the GI50 (NCI-60 cancer cell lines; SK-MEL-28, Melanoma, SK-MEL-28) of the same compound?
Answer: The GI50 was 1.13 µM.

Question: What about the GI50 (NCI-60 cancer cell lines; SK-OV-3, Ovarian Cancer, SK-OV-3) of the same compound?
Answer: Its GI50 is 0.14 µM.

Question: What about the GI50 (NCI-60 cancer cell lines; SNB-19, CNS Cancer, SNB-19) of the same compound?
Answer: The GI50 was 0.11 µM.

Question: And the GI50 (NCI-60 cancer cell lines; SNB-75, CNS Cancer, SNB-75)?
Answer: Its GI50 is 0.27 µM.

Question: And the GI50 (NCI-60 cancer cell lines; SW-620, Colon Cancer, SW-620)?
Answer: The GI50 was 0.13 µM.

Question: What about the GI50 (NCI-60 cancer cell lines; T47D, Breast Cancer, T-47D) of the same compound?
Answer: The GI50 was 0.11 µM.

Question: What about the GI50 (NCI-60 cancer cell lines; TK-10, Renal Cancer, TK-10) of the same compound?
Answer: Its GI50 is 0.73 µM.

Question: And the GI50 (NCI-60 cancer cell lines; U-251, CNS Cancer, U251)?
Answer: The GI50 was 0.08 µM.

Question: What about the GI50 (NCI-60 cancer cell lines; UACC-62, Melanoma, UACC-62) of the same compound?
Answer: Its GI50 is 0.04 µM.

Question: And the GI50 (NCI-60 cancer cell lines; UACC-257, Melanoma, UACC-257)?
Answer: Its GI50 is 0.59 µM.

Question: What about the mean GI50 across NCI-60 panel (MGM) (NCI-60 cancer cell lines; average of GI50 values across the entire panel of NCI-60 cancer cell lines) of the same compound?
Answer: Its mean GI50 across NCI-60 panel (MGM) is 177 nM.

Question: What about the “Top1 Inhibiton” value (human topoisomerase I) of the same compound?
Answer: The value was “+++ (strong inhibition, +++, MYC expression inhibited at 0.5 to 1.0 μM)”.
